{
  "source": "patent US20260294770A1",
  "about": "“FORMULATIONS OF NARINGENIN” (DEBUT BIOTECHNOLOGY, INC., priority 2023, published 2026)",
  "key": {"[1]": {"tested_on": "HaCaT immortalized keratinocytes", "settings": "10 μM; cited from earlier work"}, "[2]": {"assay": "DPPH antioxidant activity assay (organic medium)", "format": "biochemical", "settings": "for % Radical Inhibition: organic medium", "source_text": "The 2,2-diphenyl-1-picrylhydrazyl (DPPH) antioxidant assay is designed to evaluate the antioxidant activity of compositions comprising naringenin in an organic medium.\n2,2-diphenyl-1-picrylhydrazyl (DPPH) is a stable free radical used to evaluate free radical scavenging capacity of a material. In the presence of an antioxidant DPPH is reduced, resulting in the formation of a colorless solution. Reduction of absorbance at 517 nm is standardized to solvent control as an indication of DPPH scavenging."}, "[3]": {"assay": "Solubility of naringenin in various solvents", "format": "physicochemical", "procedure": "The invention recognizes that the solvent used for preparing naringenin compositions should be any solvent acceptable to be used in cosmetic formulations. In certain embodiments of the invention, naringenin is dissolved in a solvent selected from a group consisting of: dimethyl isosorbide, ethoxydiglycol, isopropyl lauryl sarcosinate, pentylene glycol, propanediol, 1,2-hexanediol, and/or butylene glycol. In certain preferred embodiments, naringenin is dissolved in dimethyl isosorbide. In certain embodiments, naringenin is dissolved in isopropyl lauryl sarcosinate. In certain embodiments, naringenin is dissolved in ethoxydiglycol. In certain embodiments, the solvent is a glycol. In certain embodiments, the glycol is selected from a group consisting of pentylene glycol, butylene glycol, and any combination thereof. In certain embodiments, the solvent is selected from a group consisting of: phenylpropanol, 1,2-hexanediol, propanediol, isopentyldiol, 1,2 heptanediol, and any combination thereof.\nTable 1 provides the solubility data for naringenin in several solvents. […]"}, "[4]": {"assay": "Glycation inhibition assay", "format": "biochemical", "settings": "for IC50 glycation inhibition: calculated", "procedure": "The assay was conducted to evaluate the glycation inhibition activity of compositions comprising naringenin.\nNonenzymatic glycation can occur when glucose reacts with proteins, forming a Schiff base intermediate that subsequently undergoes Amadori rearrangement to form glycosylated proteins, when they react with skin proteins to form Advanced Glycation End products (AGE). AGE formation can result in loss of skin elasticity and impaired cellular function. The glycation inhibition ability of a compound is measured by change in fluorescence m relative to solvent control."}, "[5]": {"tested_on": "UPK1A", "assay": "Upregulation of gene expression and/or activity, 1% naringenin: UPK1A", "source_text": "In certain embodiments, administration of a composition comprising naringenin leads to up-regulation of LCE5A, KRT77, ALOXE3, KRT1, HPGD, MUCL1, CASP14, WFDC12, KRT10, DNASE1L2, IL37, SERPINB12, HAL, UPK1A, CALML5, LCE2B, and/or MIR205. In certain embodiments, administration of a composition comprising naringenin leads to down-regulation of CCL11, CSF2, IL23A, IL11, BMP6, IL13RA2, C2CD4A, NR4A2, C2CD4B, FGF2, FARP4, GDF15, THBS1, HSPA1A, PTGS2, and/or DKK1. Tables 10 and 11 provide data for upregulation and downregulation respectively of certain genes after administration of compositions comprising 1% naringenin.\nUroplakin 1A (UPK1A) is involved in cell proliferation. The proteins in this family mediate signal transduction events that play a role in the regulation of cell development, activation, growth and motility. This encoded protein is found in the asymmetrical unit membrane (AUM) where it can complex with other transmembrane 4 superfamily proteins. UP1A may play a role in normal bladder epithelial physiology, possibly in regulating membrane permeability of superficial umbrella cells or in stabilizing the apical membrane through AUM/cytoskeletal interactions. In certain embodiments, compositions comprising naringenin leads to upregulation of UPK1A, which leads to increase cell proliferation, including the cells in the skin and the underlying tissues. […]"}},
  "note": "“Also recorded” adds a separate entry of the source.",
  "data": [
    {"compound": "O=C1C[C@@H](c2ccc(O)cc2)Oc2cc(O)cc(O)c21", "note": "[naringenin, (2S)-5,7-Dihydroxy-2-(4-hydroxyphenyl)-2,3-dihydro-4H-1-benzopyran-4-one]", "values": [
      {"measurement": "Protection from UVB-induced apoptosis", "setting": "[1]", "result": "protecting HaCaT immortalized keratinocytes from UVB-induced apoptosis"},
      {"measurement": "% Radical Inhibition", "setting": "[2]; 0.50 % w/w naringenin", "result": 18.82, "unit": "%"},
      {"measurement": "% Radical Inhibition", "setting": "[2]; 1.00 % w/w naringenin", "result": 28.44, "unit": "%"},
      {"measurement": "% Radical Inhibition", "setting": "[2]; 2.00 % w/w naringenin", "result": 46.82, "unit": "%"},
      {"measurement": "Lowest concentration with antioxidant activity", "setting": "[2]; organic solvent systems", "result": "≤ 0.2", "unit": "% w/w"},
      {"measurement": "Solubility (in words)", "setting": "[3]; in Helianthus Annuus (Sunflower) Seed Oil / sunflower oil", "result": "insoluble in Helianthus Annuus (Sunflower) Seed Oil; also recorded: not soluble in sunflower oil"},
      {"measurement": "Solubility (in words)", "setting": "[3]; in water", "result": "poorly soluble or insoluble in water"},
      {"measurement": "Naringenin Solubility", "setting": "[3]; solvent: 1,2 heptanediol", "result": 2.50, "unit": "% w/w"},
      {"measurement": "Naringenin Solubility", "setting": "[3]; solvent: 1,2 hexanediol", "result": 2.50, "unit": "% w/w"},
      {"measurement": "Naringenin Solubility", "setting": "[3]; solvent: 1,2 propanediol", "result": 0.00, "unit": "% w/w"},
      {"measurement": "Naringenin Solubility", "setting": "[3]; solvent: 3-methyl-1,3-butanediol", "result": 0.00, "unit": "% w/w"},
      {"measurement": "Naringenin Solubility", "setting": "[3]; solvent: Butylene glycol", "result": 2.50, "unit": "% w/w"},
      {"measurement": "Naringenin Solubility", "setting": "[3]; solvent: C9-12 alkane", "result": 0.00, "unit": "% w/w"},
      {"measurement": "Naringenin Solubility", "setting": "[3]; solvent: C15-19 alkane", "result": 0.00, "unit": "% w/w"},
      {"measurement": "Naringenin Solubility", "setting": "[3]; solvent: Capric/caprylic triglyceride", "result": 0.00, "unit": "% w/w"},
      {"measurement": "Naringenin Solubility", "setting": "[3]; solvent: Di(propylene glycol) dibenzoate", "result": 0.00, "unit": "% w/w"},
      {"measurement": "Naringenin Solubility", "setting": "[3]; solvent: Dimethyl isosorbide", "result": 15.00, "unit": "% w/w"},
      {"measurement": "Naringenin Solubility", "setting": "[3]; solvent: Ethoxydiglycol", "result": 20.00, "unit": "% w/w"},
      {"measurement": "Naringenin Solubility", "setting": "[3]; solvent: Isoamyl laurate", "result": 0.00, "unit": "% w/w"},
      {"measurement": "Naringenin Solubility", "setting": "[3]; solvent: Isopentyldiol", "result": 2.50, "unit": "% w/w"},
      {"measurement": "Naringenin Solubility", "setting": "[3]; solvent: Isopropyl lauryol sarcosinate", "result": 10.00, "unit": "% w/w"},
      {"measurement": "Naringenin Solubility", "setting": "[3]; solvent: Isopropyl myristate", "result": 0.00, "unit": "% w/w"},
      {"measurement": "Naringenin Solubility", "setting": "[3]; solvent: Neopentyl glycol diethylhexanoate", "result": 0.00, "unit": "% w/w"},
      {"measurement": "Naringenin Solubility", "setting": "[3]; solvent: Oleyl alcohol", "result": 0.00, "unit": "% w/w"},
      {"measurement": "Naringenin Solubility", "setting": "[3]; solvent: Pentylene glycol", "result": 2.50, "unit": "% w/w"},
      {"measurement": "Naringenin Solubility", "setting": "[3]; solvent: Phenylpropanol", "result": 5.00, "unit": "% w/w"},
      {"measurement": "Naringenin Solubility", "setting": "[3]; solvent: Propanediol", "result": 2.50, "unit": "% w/w"},
      {"measurement": "Naringenin Solubility", "setting": "[3]; solvent: Squalene", "result": 0.00, "unit": "% w/w"},
      {"measurement": "Naringenin Solubility", "setting": "[3]; solvent: Tri C12-C13 alkyl citrate", "result": 0.00, "unit": "% w/w"},
      {"measurement": "Naringenin Solubility", "setting": "[3]; solvent: Tributyl citrate", "result": 0.00, "unit": "% w/w"},
      {"measurement": "Naringenin Solubility", "setting": "[3]; solvent: Tributyl-O-acetylcitrate", "result": 0.00, "unit": "% w/w"},
      {"measurement": "Naringenin Solubility", "setting": "[3]; solvent: Triethyl O-acetylcitrate", "result": 0.00, "unit": "% w/w"},
      {"measurement": "Naringenin Solubility", "setting": "[3]; solvent: Triethyl citrate", "result": 0.00, "unit": "% w/w"},
      {"measurement": "Naringenin Solubility", "setting": "[3]; solvent: Triisostearin", "result": 0.00, "unit": "% w/w"},
      {"measurement": "Naringenin Solubility", "setting": "[3]; solvent: jojoba oil", "result": 0.00, "unit": "% w/w"},
      {"measurement": "Naringenin Solubility", "setting": "[3]; solvent: sunflower oil", "result": 0.00, "unit": "% w/w"},
      {"measurement": "Lowest concentration inhibiting glycation", "setting": "[4]", "result": "≤ 0.002", "unit": "% w/w"},
      {"measurement": "% Enzyme Inhibition (glycation inhibition)", "setting": "[4]; 0.008 % w/w naringenin", "result": 27.87, "unit": "%"},
      {"measurement": "% Enzyme Inhibition (glycation inhibition)", "setting": "[4]; 0.016 % w/w naringenin", "result": 45.49, "unit": "%"},
      {"measurement": "% Enzyme Inhibition (glycation inhibition)", "setting": "[4]; 0.031 % w/w naringenin", "result": 60.22, "unit": "%"},
      {"measurement": "% Enzyme Inhibition (glycation inhibition)", "setting": "[4]; 0.0625 % w/w naringenin", "result": 69.05, "unit": "%"},
      {"measurement": "IC50 glycation inhibition", "setting": "[4]", "result": 0.019, "unit": "% w/w"},
      {"measurement": "IC50 glycation inhibition", "setting": "[4]; Example 7", "result": 0.019, "unit": "%"},
      {"measurement": "Fold-increase in expression and/or activity of UPK1A", "setting": "[5]", "result": "~10", "unit": "fold"}
    ]}
  ]
}
